# Results reported in ChEMBL document CHEMBL3352482, “Discovery of potent N-(isoxazol-5-yl)amides as HSP90 inhibitors” (Eur J Med Chem, 2014).
# pIC50: −log10 of the molar value. Active and inactive are the calls of the source. The rule behind the calls is not given here.
# Columns and labels:
# MDA-MB-231 = assay: Growth inhibition of human MDA-MB-231 cells after 72 hrs by SRB assay; format: functional; settings: MDA-MB-231, 72 h
# [1] = Growth inhibition of human OVCAR8 cells after 72 hrs by SRB assay; format: functional; settings: OVCAR-8, 72 h
# [2] = Growth inhibition of human SMMC7721 cells after 72 hrs by SRB assay; format: functional; settings: SMMC-7721, 72 h
# [3] = Growth inhibition of human HCT116 cells after 72 hrs by SRB assay; format: functional; settings: HCT-116, 72 h
# DU-145 = assay: Growth inhibition of human DU145 cells after 72 hrs by SRB assay; format: functional; settings: DU-145, 72 h
# NCI-H596 = assay: Growth inhibition of human NCI-H596 cells after 72 hrs by SRB assay; format: functional; settings: NCI-H596, 72 h
# SK-MEL-28 = assay: Growth inhibition of human SK-MEL-28 cells after 72 hrs by SRB assay; format: functional; settings: SK-MEL-28, 72 h
# A549 = assay: Growth inhibition of human A549 cells after 72 hrs by SRB assay; format: functional; settings: A549, 72 h
# SW-620 = assay: Growth inhibition of human SW620 cells after 72 hrs by SRB assay; format: functional; settings: SW-620, 72 h
# HCC1937 = assay: Growth inhibition of human HCC1937 cells after 72 hrs by SRB assay; format: functional; settings: HCC1937, 72 h
# HeLa = assay: Growth inhibition of human HeLa cells after 72 hrs by SRB assay; format: functional
# [4] = Growth inhibition of human U87MG cells after 72 hrs by SRB assay; format: functional, U-87MG ATCC; settings: U-87 MG
# [5] = Growth inhibition of human HCC827 cells after 72 hrs by SRB assay; format: functional; settings: HCC827, 72 h
# MDA-MB-468 = assay: Growth inhibition of human MDA-MB-468 cells after 72 hrs by SRB assay; format: functional; settings: MDA-MB-468, 72 h
# [6] = Growth inhibition of human 786-O cells after 72 hrs by SRB assay; format: functional; settings: 786-0, 72 h
# SW480 = assay: Growth inhibition of human SW480 cells after 72 hrs by SRB assay; format: functional; settings: SW480, 72 h
# [7] = biological target: T1, Heat shock protein HSP 90-alpha (Homo sapiens, UniProt P07900)
# Description: Inhibition of HSP90alpha (unknown origin) after 16 hrs by FP enzymatic assay
# hERG (KCNH2) = hERG (KCNH2) (Homo sapiens, UniProt Q12809); assay: Inhibition of human ERG at 1 uM
# [8] = Antitumor activity against human U87MG cells xenografted in mouse assessed as tumor growth inhibition at 50 mg/kg, iv dosed 3 times per week for 17 consecutive days relative to control; format: functional, U-87MG ATCC
# Mus musculus = assay: Toxicity in human U87MG cells xenografted mouse assessed as weight loss at 25 to 50 mg/kg, iv dosed 3 times per week for 17 consecutive days relative to control; format: organism-based, U-87MG ATCC; set-up: dose 25-50 mg/kg, route intravenous; settings: in vivo
# [9] = Antitumor activity against human U87MG cells xenografted in mouse assessed as tumor growth inhibition at 25 mg/kg, iv dosed 3 times per week for 17 consecutive days relative to control; format: functional, U-87MG ATCC
# [10] = Cmax in mouse at 50 mg/kg, po; format: ADME, organism-based; set-up: dose 50 mg/kg, route oral; settings: in vivo
# [11] = Intrinsic clearance in rat liver microsomes assessed per mg protein; format: ADME; settings: read-out: CLH
# [12] = Oral bioavailability in mouse at 50 mg/kg; format: ADME, organism-based; settings: in vivo
# [13] = Mean residence time in mouse at 10 mg/kg, iv; format: ADME, organism-based; set-up: dose 10 mg/kg, route intravenous; settings: in vivo
# [14] = AUC (0 to t) in mouse at 50 mg/kg, po; format: ADME, organism-based; set-up: dose 50 mg/kg, route oral; settings: plasma
# [15] = Tmax in mouse at 50 mg/kg, po; format: ADME, organism-based; set-up: dose 50 mg/kg, route oral; settings: in vivo
# [16] = Intrinsic clearance in human liver microsomes assessed per mg protein; format: ADME; settings: read-out: CLH
# [17] = Half life in mouse at 50 mg/kg, po; format: ADME, organism-based; set-up: dose 50 mg/kg, route oral; settings: in vivo
# [18] = AUC (0 to t) in mouse at 10 mg/kg, iv; format: ADME, organism-based; set-up: dose 10 mg/kg, route intravenous; settings: plasma
# [19] = Mean residence time in mouse at 50 mg/kg, po; format: ADME, organism-based; set-up: dose 50 mg/kg, route oral; settings: in vivo
# [20] = Half life in mouse at 10 mg/kg, iv; format: ADME, organism-based; set-up: dose 10 mg/kg, route intravenous; settings: in vivo
# CYP1A2 = biological target: T2, CYP1A2 (Homo sapiens, UniProt P05177); assay: Inhibition of CYP1A2 in human liver microsomes at 10 uM after 20 mins
# T2 sequence (P05177 whole entry): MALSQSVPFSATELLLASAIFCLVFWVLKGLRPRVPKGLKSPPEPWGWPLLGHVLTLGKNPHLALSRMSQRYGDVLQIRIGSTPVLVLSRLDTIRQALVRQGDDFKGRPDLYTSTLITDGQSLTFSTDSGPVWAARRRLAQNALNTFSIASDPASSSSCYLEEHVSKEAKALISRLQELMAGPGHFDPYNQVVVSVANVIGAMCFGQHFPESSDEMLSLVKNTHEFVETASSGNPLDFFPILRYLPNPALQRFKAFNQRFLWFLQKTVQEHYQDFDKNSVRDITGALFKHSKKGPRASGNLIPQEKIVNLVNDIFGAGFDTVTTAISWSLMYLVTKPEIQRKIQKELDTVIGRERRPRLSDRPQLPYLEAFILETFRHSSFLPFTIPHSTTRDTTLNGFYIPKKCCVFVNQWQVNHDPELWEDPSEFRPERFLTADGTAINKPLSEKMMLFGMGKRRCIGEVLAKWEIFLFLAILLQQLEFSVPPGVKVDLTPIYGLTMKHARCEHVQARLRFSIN
# CYP2C9 = CYP2C9 (Homo sapiens, UniProt P11712); assay: Inhibition of CYP2C9 in human liver microsomes at 10 uM after 20 mins
# [21] = biological target: T1, Heat shock protein HSP 90-alpha; settings: U-87MG ATCC
# Description: Inhibition of HSP90alpha in human U87MG cells assessed as decrease in c-Met level at 50 to 100 nM after 24 hrs by western blotting
# [22] = biological target: T1, Heat shock protein HSP 90-alpha; settings: U-87MG ATCC; remark: listed apart in the source
# Description: Inhibition of HSP90alpha in human U87MG cells assessed as increase in HSP27 level at 50 to 200 nM after 24 hrs by western blotting
# CYP2D6 = CYP2D6 (Homo sapiens, UniProt P10635); assay: Inhibition of CYP2D6 in human liver microsomes at 10 uM after 20 mins
# [23] = biological target: T1, Heat shock protein HSP 90-alpha; settings: U-87MG ATCC; remark: listed apart in the source
# Description: Inhibition of HSP90alpha in human U87MG cells assessed as increase in HSP70 level at 50 to 200 nM after 24 hrs by western blotting
# [24] = biological target: T1, Heat shock protein HSP 90-alpha; settings: U-87MG ATCC; remark: listed apart in the source
# Description: Inhibition of HSP90alpha in human U87MG cells assessed as decrease in p-Akt level at 50 to 100 nM after 24 hrs by western blotting
# Cytochrome P450 3A4 = Cytochrome P450 3A4 (Homo sapiens, UniProt P08684); assay: (§1) Inhibition of CYP3A4 in human liver microsomes at 10 uM after 20 mins; settings: microsomes, 20 min, 10 µM
# [25] = biological target: T1, Heat shock protein HSP 90-alpha; settings: U-87MG ATCC; remark: listed apart in the source
# Description: Inhibition of HSP90alpha in human U87MG cells assessed as decrease in p-Erk level at 50 to 100 nM after 24 hrs by western blotting
# CYP3A4 = CYP3A4 (Homo sapiens, UniProt P08684); assay: as §1; settings: human liver microsomes
# CYP3A4, sequence (P08684 whole entry): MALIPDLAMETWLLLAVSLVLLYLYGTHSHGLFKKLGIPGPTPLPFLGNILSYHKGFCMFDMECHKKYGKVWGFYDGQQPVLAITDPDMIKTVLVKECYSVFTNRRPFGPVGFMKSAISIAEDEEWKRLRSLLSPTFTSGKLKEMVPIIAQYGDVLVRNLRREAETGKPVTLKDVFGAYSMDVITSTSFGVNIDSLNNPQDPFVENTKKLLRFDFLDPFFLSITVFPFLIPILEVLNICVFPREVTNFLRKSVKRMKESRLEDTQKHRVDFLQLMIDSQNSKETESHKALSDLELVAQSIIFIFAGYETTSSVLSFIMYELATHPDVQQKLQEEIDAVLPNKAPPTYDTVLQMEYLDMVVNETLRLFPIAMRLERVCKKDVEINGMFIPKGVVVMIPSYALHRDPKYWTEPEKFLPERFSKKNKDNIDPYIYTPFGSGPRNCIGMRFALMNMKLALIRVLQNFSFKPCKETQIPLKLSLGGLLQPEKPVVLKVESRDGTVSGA
# hERG (KCNH2), sequence (Q12809 whole entry): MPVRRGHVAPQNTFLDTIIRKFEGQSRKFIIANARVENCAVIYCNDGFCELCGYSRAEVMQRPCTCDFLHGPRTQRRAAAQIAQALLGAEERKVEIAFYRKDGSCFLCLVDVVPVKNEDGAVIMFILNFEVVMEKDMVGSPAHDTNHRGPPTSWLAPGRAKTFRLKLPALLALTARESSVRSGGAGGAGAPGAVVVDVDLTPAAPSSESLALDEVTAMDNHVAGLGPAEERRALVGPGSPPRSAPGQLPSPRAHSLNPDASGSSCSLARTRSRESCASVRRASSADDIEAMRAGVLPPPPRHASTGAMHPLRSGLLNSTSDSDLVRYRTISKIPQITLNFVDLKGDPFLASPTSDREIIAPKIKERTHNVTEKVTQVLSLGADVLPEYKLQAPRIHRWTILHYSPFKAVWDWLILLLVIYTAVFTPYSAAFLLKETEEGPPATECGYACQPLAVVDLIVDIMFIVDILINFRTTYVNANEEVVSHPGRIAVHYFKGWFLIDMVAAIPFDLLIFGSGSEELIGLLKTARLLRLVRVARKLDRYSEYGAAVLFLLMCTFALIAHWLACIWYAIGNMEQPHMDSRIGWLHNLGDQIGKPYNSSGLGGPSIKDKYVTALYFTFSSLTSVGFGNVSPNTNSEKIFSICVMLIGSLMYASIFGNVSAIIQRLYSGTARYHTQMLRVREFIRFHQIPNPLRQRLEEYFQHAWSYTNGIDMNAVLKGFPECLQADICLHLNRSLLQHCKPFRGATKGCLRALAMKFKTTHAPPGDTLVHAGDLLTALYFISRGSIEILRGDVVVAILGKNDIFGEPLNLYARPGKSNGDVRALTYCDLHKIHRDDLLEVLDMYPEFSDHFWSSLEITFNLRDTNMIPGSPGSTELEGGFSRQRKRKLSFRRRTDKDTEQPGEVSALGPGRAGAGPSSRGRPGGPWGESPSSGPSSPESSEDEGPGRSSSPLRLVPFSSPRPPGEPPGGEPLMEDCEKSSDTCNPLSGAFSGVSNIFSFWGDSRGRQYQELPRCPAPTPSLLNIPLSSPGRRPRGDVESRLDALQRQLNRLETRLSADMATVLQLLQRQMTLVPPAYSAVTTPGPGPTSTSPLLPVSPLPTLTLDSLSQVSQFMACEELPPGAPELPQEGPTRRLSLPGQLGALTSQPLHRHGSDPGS
# CYP2D6, sequence (P10635 whole entry): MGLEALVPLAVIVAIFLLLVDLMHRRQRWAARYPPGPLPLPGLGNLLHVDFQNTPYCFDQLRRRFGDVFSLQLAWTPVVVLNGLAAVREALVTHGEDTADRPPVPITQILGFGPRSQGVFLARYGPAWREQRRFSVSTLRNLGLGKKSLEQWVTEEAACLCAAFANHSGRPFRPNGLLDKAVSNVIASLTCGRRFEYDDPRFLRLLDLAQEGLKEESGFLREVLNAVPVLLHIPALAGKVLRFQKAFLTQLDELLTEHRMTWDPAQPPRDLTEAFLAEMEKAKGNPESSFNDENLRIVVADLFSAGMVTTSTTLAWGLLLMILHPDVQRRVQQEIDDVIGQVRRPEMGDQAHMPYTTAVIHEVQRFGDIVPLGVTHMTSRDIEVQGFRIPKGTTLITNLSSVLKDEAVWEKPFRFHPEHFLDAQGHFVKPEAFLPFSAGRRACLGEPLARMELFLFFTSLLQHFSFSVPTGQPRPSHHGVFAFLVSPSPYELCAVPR
# CYP2C9, sequence (P11712 whole entry): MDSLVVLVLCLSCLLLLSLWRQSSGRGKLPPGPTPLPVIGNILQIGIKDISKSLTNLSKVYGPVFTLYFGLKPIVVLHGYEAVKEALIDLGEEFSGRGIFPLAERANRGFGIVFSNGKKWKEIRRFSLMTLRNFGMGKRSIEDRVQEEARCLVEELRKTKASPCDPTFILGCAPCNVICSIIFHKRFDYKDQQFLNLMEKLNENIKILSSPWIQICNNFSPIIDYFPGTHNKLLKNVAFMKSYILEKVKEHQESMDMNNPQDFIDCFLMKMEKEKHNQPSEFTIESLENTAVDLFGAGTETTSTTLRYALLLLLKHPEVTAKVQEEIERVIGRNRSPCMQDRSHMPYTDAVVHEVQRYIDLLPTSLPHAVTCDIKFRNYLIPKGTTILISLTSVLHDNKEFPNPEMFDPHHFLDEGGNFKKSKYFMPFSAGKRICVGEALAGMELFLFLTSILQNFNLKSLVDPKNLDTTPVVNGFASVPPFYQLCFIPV
# Cytochrome P450 3A4, sequence (P08684 whole entry): as the sequence (P08684 whole entry) above
compound,measurement,setting,value
CC1CC(C)CN(Cc2ccc(-c3c(-c4cc(C(C)C)c(O)cc4O)noc3NC(=O)C3CC3)cc2)C1 (configuration not stated),GI50,MDA-MB-231,40 nM
same,GI50,[1],27 nM
same,GI50,[2],45 nM
same,GI50,[3],25 nM
same,GI50,DU-145,24 nM
same,GI50,NCI-H596,166 nM
same,GI50,SK-MEL-28,87 nM
same,GI50,A549,38 nM
same,GI50,SW-620,35 nM
same,GI50,HCC1937,67 nM
same,GI50,HeLa,39 nM
same,GI50,[4],111 nM
same,GI50,[5],17 nM
same,GI50,MDA-MB-468,67 nM
same,GI50,[6],51 nM
same,GI50,SW480,73 nM
same,pIC50,[7],7.34
same,inhibition at 1 µM,hERG (KCNH2),36.5%
CC(C)c1cc(-c2noc(NC(=O)C3CC3)c2-c2ccc(CN3CCC(N4CCOCC4)CC3)cc2)c(O)cc1O.Cl,T/C,[8],18.35%
same,Activity,Mus musculus,Non-toxic
same,T/C,[9],48.28%
CC(C)c1cc(-c2noc(NC(=O)C3CC3)c2-c2ccc(CN3CCC(N4CCOCC4)CC3)cc2)c(O)cc1O [listing 1 of 2 here],GI50,MDA-MB-231,62 nM
same,GI50,[1],48 nM
same,GI50,[2],56 nM
same,GI50,[3],112 nM
same,Cmax,[10],149 ng/mL
same,GI50,DU-145,45 nM
same,microsomal CLint,[11],10 µL/min/mg
same,GI50,NCI-H596,219 nM
same,GI50,SK-MEL-28,153 nM
same,bioavailability,[12],9.2%
same,GI50,A549,94 nM
same,GI50,SW-620,56 nM
same,GI50,HCC1937,87 nM
same,GI50,HeLa,71 nM
same,GI50,[4],115 nM
same,GI50,[5],35 nM
same,MRT,[13],4.52 h
same,GI50,MDA-MB-468,115 nM
same,GI50,[6],69 nM
same,AUC(0-t),[14],356 ng·h/mL
same,Tmax,[15],0.25 h
same,GI50,SW480,82 nM
same,pIC50,[7],7.52
same,microsomal CLint,[16],70 µL/min/mg
same,half-life,[17],1.98 h
same,AUC(0-t),[18],748 ng·h/mL
same,MRT,[19],2.71 h
same,half-life,[20],6.46 h
CC(C)c1cc(-c2noc(NC(=O)C3CC3)c2-c2ccc(CN3CCOCC3)cc2)c(O)cc1O,GI50,MDA-MB-231,54 nM
same,GI50,[1],19 nM
same,GI50,[2],46 nM
same,GI50,[3],35 nM
same,Cmax,[10],438 ng/mL
same,"inhibition at 20 min, 10 µM",CYP1A2,22%
same,GI50,DU-145,19 nM
same,microsomal CLint,[11],108 µL/min/mg
same,GI50,NCI-H596,166 nM
same,"inhibition at 20 min, 10 µM",CYP2C9,66%
same,GI50,SK-MEL-28,90 nM
same,inhibition,[21],Active
same,bioavailability,[12],16.1%
same,inhibition,[22],Active
same,GI50,A549,41 nM
same,"inhibition at 20 min, 10 µM",CYP2D6,79%
same,GI50,SW-620,46 nM
same,inhibition,[23],Active
same,GI50,HCC1937,114 nM
same,GI50,HeLa,46 nM
same,GI50,[4],115 nM
same,GI50,[5],15 nM
same,MRT,[13],1.86 h
same,GI50,MDA-MB-468,42 nM
same,GI50,[6],24 nM
same,AUC(0-t),[14],496 ng·h/mL
same,Tmax,[15],0.083 h
same,GI50,SW480,21 nM
same,pIC50,[7],7.57
same,microsomal CLint,[16],112 µL/min/mg
same,inhibition,[24],Active
same,half-life,[17],1.06 h
same,AUC(0-t),[18],615 ng·h/mL
same,INH,Cytochrome P450 3A4,Not Active
same,MRT,[19],1.54 h
same,inhibition at 1 µM,hERG (KCNH2),10.5%
same,half-life,[20],1.62 h
same,inhibition,[25],Active
CCNC(=O)c1noc(-c2cc(C(C)C)c(O)cc2O)c1-c1ccc(CN2CCOCC2)cc1 [LUMINESPIB],T/C,[8],34.06%
same,"inhibition at 20 min, 10 µM",CYP1A2,23%
same,microsomal CLint,[11],180 µL/min/mg
same,"inhibition at 20 min, 10 µM",CYP2C9,46%
same,GI50,A549,26 nM
same,"inhibition at 20 min, 10 µM",CYP2D6,30%
same,microsomal CLint,[16],92 µL/min/mg
same,"inhibition at 20 min, 10 µM",CYP3A4,12%
CC(C)c1cc(-c2noc(NC(=O)C3CC3)c2-c2ccc(CN3CCc4ccccc4C3)cc2)c(O)cc1O,GI50,A549,496 nM
same,pIC50,[7],7.44
CC(C)c1cc(-c2noc(NC(=O)C3CC3)c2-c2ccc(CN3CCC(N(C)C)CC3)cc2)c(O)cc1O,GI50,A549,2420 nM
same,pIC50,[7],7.15
COc1ccc(-c2c(-c3cc(Cl)c(O)cc3O)noc2N)cc1,GI50,A549,931 nM
same,pIC50,[7],7.28
COc1ccc(-c2c(-c3cc(Cl)c(O)cc3O)noc2NC(=O)C2CC2)cc1,GI50,A549,20700 nM
same,pIC50,[7],7.28
CC(C)c1cc(-c2noc(NC(=O)C3CC3)c2-c2ccc(CN3CCC(N4CCOCC4)CC3)cc2)c(O)cc1O [listing 2 of 2 here],inhibition,[21],Active
same,inhibition,[22],Active
same,inhibition,[23],Active
same,inhibition,[24],Active
same,inhibition,[25],Active
COc1ccc(-c2c(-c3cc(Cl)c(O)cc3O)noc2NC(=O)C(C)C)cc1,GI50,A549,5530 nM
same,pIC50,[7],7.42
COc1ccc(-c2c(-c3cc(C(C)(C)C)c(O)cc3O)noc2NC(C)=O)cc1,GI50,A549,6170 nM
same,pIC50,[7],6.52
